From patent publication US12686680B2, “Substituted pyrazolo[1,5-α]pyrimidines as CRF receptor antagonists” (Neurocrine Biosciences, Inc., priority 2019, dated 2026)

Legend:
CRF1 receptor = target: T1, CRF1 receptor (Homo sapiens, UniProt P34998); assay: CRF1 receptor binding kinetics (association/dissociation rate constants, method of Fleck et al.); conditions: for Ki: Ki=k−1/k1, read-out: Kinetic Ki; for k1: association rate constant; for k^−1: dissociation rate constant
T1 sequence (P34998 24-415): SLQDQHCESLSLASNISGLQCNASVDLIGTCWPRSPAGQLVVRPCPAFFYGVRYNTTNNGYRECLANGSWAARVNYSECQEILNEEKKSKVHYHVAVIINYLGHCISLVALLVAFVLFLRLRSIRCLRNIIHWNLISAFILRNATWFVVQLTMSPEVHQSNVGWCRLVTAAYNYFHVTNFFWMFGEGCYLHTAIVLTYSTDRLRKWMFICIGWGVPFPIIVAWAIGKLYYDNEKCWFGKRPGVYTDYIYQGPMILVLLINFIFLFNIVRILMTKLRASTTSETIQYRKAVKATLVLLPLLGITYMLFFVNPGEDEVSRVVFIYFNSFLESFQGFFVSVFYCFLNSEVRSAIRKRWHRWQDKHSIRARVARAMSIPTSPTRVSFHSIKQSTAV
Protocol: The association (k1) and dissociation (k−1) rate constants defining binding of the Compounds to the CRF1 receptor were determined by the method described in Fleck et al. (J. Pharmacology and Experimental Therapeutics, 341(2):518-531, 2012) (hereinafter “Fleck et al.” and incorporated by reference in its entirety). As described therein, the activity of a CRF1 receptor antagonist can be expressed as the kinetically derived affinity (Ki) calculated from the association (k1) and dissociation (k−1) rate constants by the following equation: Ki=k−1/k1
The Compounds listed in Table 5 were evaluated according to these procedures, and the kinetic Ki was determined and found to be as follows: […]

[1] = pKa determination, SiriusT3 UV-metric and pH-metric co-solvent titration; assay type: physicochemical; conditions: water:CH3OH co-solvent mixtures
Protocol: The pKa was determined using a SiriusT3 (Serial: T317136) with a UV-metric co-solvent titration assay and a pH-metric co-solvent titration assay. For the UV-metric, 10 mM sample was prepared in DMSO with phosphate buffer and placed on the instrument along with a blank prepared with the same composition, absent compound. For pH-metric, an appropriate weight of sample was added to a glass vial to meet buffer capacity requirements, absent of diluent. For each test, pKa was measured in three water:CH3OH ratios. The reported pKas are extrapolated graphically via the Yasuda-Shedlovsky method.

ADX rats = assay: Lowering of ACTH in adrenalectomized rats; assay type: in vivo; conditions: oral, 10 mg/kg single dose, n=11/group

| Structure (SMILES) | Ki (CRF1 receptor) [nM] | k1 (CRF1 receptor) | k^−1 (CRF1 receptor) [min⁻¹] | pKa ([1]; UV-metric method, Yasuda-Shedlovsky extrapolation from water:CH3OH) | pKa ([1]; overall, two methods) | pKa ([1]; pH-metric method, Yasuda-Shedlovsky extrapolation from water:CH3OH) | duration of lowering of plasma ACTH levels (ADX rats) | plasma ACTH levels (ADX rats) |
| --- | --- | --- | --- | --- | --- | --- | --- | --- |
| CCCN(Cc1ccc(-c2ccccc2)cc1)c1cc(C)nc2c(-c3cnc(N(C)C)cc3C)c(C)nn12 [Compound 8, 5-(2,5-dimethyl-7-{[(4-phenylphenyl)methyl](propyl)amino}pyrazolo[1,5-a]pyrimidin-3-yl)-N,N,4-trimethylpyridin-2-amine] | < 0.12 | 9.1 ± 4.1 10^6M^−1min^−1 | <0.001 | – | – | – | – | – |
| CCCN(Cc1ccc(-n2cccn2)cc1)c1cc(C)nc2c(-c3cnc(N(C)C)cc3C)c(C)nn12 [Compound 9, 5-{2,5-dimethyl-7-[propyl({[4-(1H-pyrazol-1-yl)phenyl]methyl})amino]pyrazolo[1,5-a]pyrimidin-3-yl}-N,N,4-trimethylpyridin-2-amine] | < 0.29 | 3.5 ± 1.1 10^6M^−1min^−1 | <0.001 | – | – | – | – | – |
| CCCN(Cc1ccc(-n2cncn2)cc1)c1cc(C)nc2c(-c3cnc(N(C)C)cc3C)c(C)nn12 [Compound 10, 5-{2,5-dimethyl-7-[propyl({[4-(1H-1,2,4-triazol-1-yl)phenyl]methyl})amino]pyrazolo[1,5-a]pyrimidin-3-yl}-N,N,4-trimethylpyridin-2-amine] | 0.95 | 2.2 10^6M^−1min^−1 | 0.0021 | – | – | – | – | – |
| CCCN(Cc1ccc(-c2csc(NC)n2)cc1)c1cc(C)nc2c(-c3cnc(N(C)C)cc3C)c(C)nn12 [Compound 11, 5-{2,5-dimethyl-7-[({4-[2-(methylamino)-1,3-thiazol-4-yl]phenyl}methyl)(propyl)amino]pyrazolo[1,5-a]pyrimidin-3-yl}-N,N,4-trimethylpyridin-2-amine] | 0.72 | 2.4 +/− 0.2 10^6M^−1min^−1 | 0.0017 | – | – | – | – | – |
| CCCN(Cc1ccc(-c2ccccn2)cc1)c1cc(C)nc2c(-c3cnc(N(C)C)cc3C)c(C)nn12 [Compound 3, 5-{2,5-dimethyl-7-[propyl({[4-(pyridin-2-yl)phenyl]methyl})amino]pyrazolo[1,5-a]pyrimidin-3-yl}-N,N,4-trimethylpyridin-2-amine] | < 0.36 | 2.9 ± 0.92 10^6M^−1min^−1 | <0.001 | – | – | – | – | – |
| CCCN(Cc1ccc(-c2csc(N(C)C)n2)cc1)c1cc(C)nc2c(-c3cnc(N(C)C)cc3C)c(C)nn12 [Compound 1, 5-{7-[({4-[2-(dimethylamino)-1,3-thiazol-4-yl]phenyl}methyl)(propyl)amino]-2,5-dimethylpyrazolo[1,5-a]pyrimidin-3-yl}-N,N,4-trimethylpyridin-2-amine] | < 0.22 | 4.9 ± 1.7 10^6M^−1min^−1 | <0.001 | 4.07 ± 0.06 | ~4.1 | 4.06 ± 0.08 | up to 5 hours | significantly lowered |
| CCCN(Cc1ccc(-c2cccnc2)cc1)c1cc(C)nc2c(-c3cnc(N(C)C)cc3C)c(C)nn12 [Compound 2, 5-{2,5-dimethyl-7-[propyl({[4-(pyridin-3-yl)phenyl]methyl})amino]pyrazolo[1,5-a]pyrimidin-3-yl}-N,N,4-trimethylpyridin-2-amine] | < 0.19 | 5.3 ± 0.78 10^6M^−1min^−1 | <0.001 | – | – | – | – | – |
